Test results taken from PMC10349806 (Nature Communications, 2023).
“And” between values parts separate entries of the source, which are not always exact repeats. Equal values may be shown once.

Target: T1, PfCRT variant E232A (Plasmodium falciparum, UniProt Q9N623, A220S/E232A/I356T/K76T/M74I/N326S/N75E/Q271E/R371I)
T1 sequence (Q9N623 1-424 M74I/N75E/K76T/A220S/E232A/Q271E/N326S/I356T/R371I): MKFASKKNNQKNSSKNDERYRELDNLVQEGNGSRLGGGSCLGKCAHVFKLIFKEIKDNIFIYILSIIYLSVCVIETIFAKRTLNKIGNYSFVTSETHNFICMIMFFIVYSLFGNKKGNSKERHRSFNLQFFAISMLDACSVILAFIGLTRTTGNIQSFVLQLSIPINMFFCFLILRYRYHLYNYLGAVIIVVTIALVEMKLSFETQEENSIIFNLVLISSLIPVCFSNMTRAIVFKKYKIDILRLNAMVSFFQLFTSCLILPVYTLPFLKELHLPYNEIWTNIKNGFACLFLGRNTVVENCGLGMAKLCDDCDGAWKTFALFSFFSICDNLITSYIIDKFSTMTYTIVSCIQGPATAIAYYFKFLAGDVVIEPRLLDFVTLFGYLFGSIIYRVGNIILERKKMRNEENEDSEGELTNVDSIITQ
Assay: CQ uptake assay, oocytes expressing E232A
Format: cell-based
Method: Site-directed mutagenesis of PfCRT^Dd2 was performed as described using the megaprimer method with overlap extension[21],[54]. The primer pairs used are listed in Supplementary Table 6. Please note that a codon-optimized and oocyte-adapted version of PfCRT^Dd2 was used[22] (Supplementary Fig. 16). The resulting DNA fragment was cloned into the SP64T expression vector and verified by sequencing.
Oocytes were obtained as described previously. Briefly, adult (>2 years old) female X. laevis frogs (NASCO) were anesthetized in a cooled solution of ethyl 3-amino benzoate methanesulfonate (0.1%, w/v), followed by a surgical removal of parts of the ovary. The ovary lobes were carefully dissected and small pieces of oocytes were incubated in Ca^2+-free ND96 buffer (96 mM NaCl, 2 mM KCl, 1 mM MgCl2 buffered with 5 mM HEPES/NaOH, pH 7.5) supplemented with collagenase D (0.1%, w/v; Roche), BSA (0.5%, w/v), and 9 mm Na2HPO4 at 18 °C for 14-16 h while gentle shaking. After incubation, the oocytes were carefully washed several times with ND96 buffer (96 mM NaCl, 2 mM KCl, 1.8 mM CaCl2, 1 mM MgCl2 buffered with 5 mM HEPES/NaOH, pH 7.5) supplemented with 100 mg l^−1 gentamycin). Defolliculated and healthy-looking stage V-VI oocytes were manually selected for RNA microinjection. The RNA was generated as following: The codon-optimized sequences of PfCRT variants were cloned into the pSP64T expression vector. After vector linearization using the restriction endonucleases BamHI or SalI (New England Biolabs), transcription was performed using the in vitro SP6 mMessage mMachine Kit (Ambion)[34]. The obtained RNA was kept at −80 °C and diluted with nuclease-free water to a concentration of 0.6 μg μl^−1. Precision-bore glass capillary tubes (3.5-inch glass capillaries; Drummond Scientific Co.) were pulled on a vertical puller (P-87 Flaming/Brown micropipette puller, Sutter Instrument Co.), graduated, and placed on a microinjector (Nanoject II Auto-Nanoliter Injector, Drummond Scientific Co.). 50 nl of nuclease-free water alone (control oocytes) or 50 nl of 0.6 μg μl^−1 RNA were injected under stereomicroscopic control. Injected oocytes were incubated for 46–72 h at 18 °C with twice-daily buffer changes before usage in experiments.
Drug uptake assays were performed as described previously[21],[22],[24],[34]. […] The direction of radio-labeled drug transport is here from the mostly acidic extracellular solution (pH 4.5 or 6.0, as indicated) into the oocyte cytosol (pH ∼ 7.2), which corresponds to the efflux of drug from the acidic digestive vacuole (pH 5.2) into the parasite cytoplasm (pH 7.2). The topology of PfCRT in the oolemma is such that both the N- and C-terminus face the extracellular milieu[3],[22]. In the parasite, the N- and C-terminus face the lumen of the digestive vacuole. […] For determination of the amount of drug uptake for each oocyte, the reaction medium was removed and the oocytes were washed three times with 2 ml of ice-cold ND96 buffer. Each oocyte was individually transferred to a scintillation vial containing 5% sodium dodecyl sulfate (200 μl) for lysis. […] Oocytes that were injected with water instead of RNA were analyzed in parallel, representing the uptake of a drug by diffusion and/or endogenous permeation pathways. […] The specific PfCRT-mediated uptake was determined by subtracting the corresponding background value measured in water-injected oocytes from that of PfCRT-expressing oocytes. […]

## CCN(CC)CCCC(C)Nc1ccnc2cc(Cl)ccc12 (centres unmarked) [CQ, chloroquine]
E232A, 50 µM CQ, 1 h, mean ± SEM
  Activity at pH 4.5: 1.07 ± 0.12 pmol h-1 oocyte-1
E232A, CQ transport at pH 4.5 / pH 6.0
  R-value: 0.65 ± 0.06
pH 4.5, single replicates, Fig 1d left
  E232A transport activity pH 4.5: 1.05 pmol oocyte-1 h-1 and 1.32 pmol oocyte-1 h-1 and 1.01 pmol oocyte-1 h-1 and 0.62 pmol oocyte-1 h-1 and 1.37 pmol oocyte-1 h-1
pH 4.5 vs pH 6.0, Fig 1d left
  E232A R-value: 0.65 and 0.81 and 0.48 and 0.80
pH 6.0, single replicates, Fig 1d left
  E232A transport activity pH 6.0: 1.62 pmol oocyte-1 h-1 and 1.63 pmol oocyte-1 h-1 and 2.09 pmol oocyte-1 h-1 and 1.28 pmol oocyte-1 h-1 and 1.71 pmol oocyte-1 h-1
